Read-outs that look alike come from different tables or passages of the source.
Legend:
Pyrenophora graminea [1] = assay: Fungal growth assay, Pyrenophora graminea (microtiter plate, PDB); format: cell-based; conditions: 72 hrs
Gäumannomyces graminis = assay: Fungal growth assay, Gäumannomyces graminis (microtiter plate, PDB); format: cell-based; conditions: 72 hrs
Fusarium graminearum [2] = format: cell-based; conditions: 48 hrs
Fusarium graminearum [3] = format: in vivo; conditions: seed treatment 20 g/100 kg, corn seeds (cv. Magister) in inoculated soil
Rhizoctonia solani = assay: Rhizoctonia solani/cotton (damping off) seed treatment test; format: in vivo; conditions: seed treatment 200 g/100 kg, cotton seeds in inoculated soil
Description: A-2. Rhizoctonia solani/Cotton (Damping Off on Cotton)
A defined amount of mycelium of R. solani is blended with soil and trays are filled with the inoculated soil. The formulated test compounds are applied to cotton seeds. The treated cotton seeds are then sown into the inoculated soil. Until germination the test is stored at 20° C. and a rel. humidity of 90% in the dark. After germination the test is transferred to 25° C. and a rel. humidity of 70% with a photoperiod of 14 h. The evaluation is done by counting the emerged cotton plants and the number of emerged and diseased plants.

Pyrenophora graminea [4] = assay: Pyrenophora graminea/barley (stripe disease) seed treatment test; format: in vivo; conditions: seed treatment 20 g/100 kg, infected winter barley seeds
Description: A-1. Pyrenophora graminea/Barley (Stripe Disease on Barley)
After application of the formulated seed treatment onto P. graminea-infected seeds of winter barley the seeds are sown in trays filled with field soil. The trays are kept in a growth room for 3 weeks at 4° C. After this period the trial is transferred to a greenhouse where a temperature of 12° C. and a 14 hr light period is provided. The following assessments are made: emergence count, final stand count, number of infected plants.

| Compound | Observed control in % (% Cobs) (Pyrenophora graminea [1]; 0.25 ppm) [%] | Observed control in % (% Cobs) (Gäumannomyces graminis; 0.5 ppm) [%] | Observed control in % (% Cobs) (Fusarium graminearum [2]; 0.03125 ppm) [%] | Observed control in % (% Cobs) (Fusarium graminearum [2]; 0.0625 ppm) [%] | Observed control in % (% Cobs) (Fusarium graminearum [2]; 0.125 ppm) [%] | Observed control in % (% Cobs) (Fusarium graminearum [2]; 0.25 ppm) [%] | Observed control in % (% Cobs) (Pyrenophora graminea [1]; 0.5 ppm) [%] | activity (Fusarium graminearum [3]) [%] | Observed control in % (% Cobs) (Gäumannomyces graminis; 0.25 ppm) [%] | activity (Rhizoctonia solani) [%] | activity (Pyrenophora graminea [4]) [%] |
| --- | --- | --- | --- | --- | --- | --- | --- | --- | --- | --- | --- |
| Cn1cc(C(=O)Nc2ccccc2C2CC2C2CC2)c(C(F)F)n1 (stereo not drawn) [Compound of formula A, reference compound] | 0 | 74.8 | 1.6 | 2.4 | 8.4 | 7.8 | – | – | – | – | – |
| Cc1ccc(C2CC(C)(c3cccnc3)N(C)O2)cc1 (stereo not drawn) [Compound of formula I] | – | – | 0 | 3.5 | 4.4 | 12.5 | 62.3 | 100 | 26.0 | 70 | 100 |
